The values that follow come from ChEMBL document CHEMBL1909046, “DrugMatrix in vitro pharmacology data”.

For data set [1], the target named is T1, Alpha-2A adrenergic receptor (Homo sapiens, UniProt P08913). Further: in other assays of this panel Not Active means under 50% inhibition at 10 µM.
T1 sequence (P08913 whole entry): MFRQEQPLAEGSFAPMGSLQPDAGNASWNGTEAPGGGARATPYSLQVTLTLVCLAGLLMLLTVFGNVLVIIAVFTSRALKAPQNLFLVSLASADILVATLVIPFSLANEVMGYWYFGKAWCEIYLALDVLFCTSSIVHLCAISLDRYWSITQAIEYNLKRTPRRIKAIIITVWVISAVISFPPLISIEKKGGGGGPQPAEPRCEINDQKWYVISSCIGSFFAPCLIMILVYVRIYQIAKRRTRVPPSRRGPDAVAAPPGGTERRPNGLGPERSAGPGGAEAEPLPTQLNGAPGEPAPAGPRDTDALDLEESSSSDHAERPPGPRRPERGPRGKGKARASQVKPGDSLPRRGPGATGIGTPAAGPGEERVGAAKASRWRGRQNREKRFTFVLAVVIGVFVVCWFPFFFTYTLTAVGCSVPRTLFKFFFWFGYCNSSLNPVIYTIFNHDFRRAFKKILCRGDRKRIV
The class given is cell membranes, Sf9, Membrane. As to conditions: sf9.

Data set [2] deals with Beta-1 adrenergic receptor (Homo sapiens, UniProt P08588). Put plainly: DRUGMATRIX: Adrenergic beta1 radioligand binding (ligand: [125I] Cyanopindolol). The data set is classed as cell membranes, CHO-K1, Membrane. As to conditions: cho-k1; Not Active = under 50% inhibition at 10 µM.
Sequence of Beta-1 adrenergic receptor (P08588 whole entry): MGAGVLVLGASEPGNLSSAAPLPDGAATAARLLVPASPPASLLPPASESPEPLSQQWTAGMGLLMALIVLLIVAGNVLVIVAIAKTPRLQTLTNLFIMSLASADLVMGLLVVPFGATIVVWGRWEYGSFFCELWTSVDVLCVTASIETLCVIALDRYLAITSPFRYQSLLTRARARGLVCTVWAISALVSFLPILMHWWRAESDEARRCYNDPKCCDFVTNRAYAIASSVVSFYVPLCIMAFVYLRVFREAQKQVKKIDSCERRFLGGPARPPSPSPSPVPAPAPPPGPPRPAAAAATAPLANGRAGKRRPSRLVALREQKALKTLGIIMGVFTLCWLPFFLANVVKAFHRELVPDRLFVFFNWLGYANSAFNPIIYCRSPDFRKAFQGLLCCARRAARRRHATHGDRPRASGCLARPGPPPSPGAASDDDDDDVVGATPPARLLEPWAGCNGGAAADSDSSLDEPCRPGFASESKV
Data set [3] deals with Prostaglandin G/H synthase 1 (Homo sapiens, UniProt P23219). Put plainly: biochemical. The data set is classed as tissue-based, Platelet.
Sequence of Prostaglandin G/H synthase 1 (P23219 whole entry): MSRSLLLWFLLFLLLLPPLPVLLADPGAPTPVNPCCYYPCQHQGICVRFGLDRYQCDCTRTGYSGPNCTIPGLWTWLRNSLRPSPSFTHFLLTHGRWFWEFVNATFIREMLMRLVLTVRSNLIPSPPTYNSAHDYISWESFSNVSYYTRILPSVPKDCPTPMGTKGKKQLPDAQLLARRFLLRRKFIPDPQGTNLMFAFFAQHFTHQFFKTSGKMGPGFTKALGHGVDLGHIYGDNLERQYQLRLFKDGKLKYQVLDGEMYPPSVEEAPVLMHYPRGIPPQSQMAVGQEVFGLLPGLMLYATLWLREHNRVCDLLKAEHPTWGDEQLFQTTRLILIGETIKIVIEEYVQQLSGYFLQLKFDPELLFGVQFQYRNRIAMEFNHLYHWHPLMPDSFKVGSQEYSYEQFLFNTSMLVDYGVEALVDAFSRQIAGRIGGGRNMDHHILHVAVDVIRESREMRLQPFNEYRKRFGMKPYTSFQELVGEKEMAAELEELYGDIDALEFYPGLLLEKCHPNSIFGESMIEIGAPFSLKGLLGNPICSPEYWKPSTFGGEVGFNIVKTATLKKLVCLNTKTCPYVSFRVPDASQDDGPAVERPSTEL
The target of data set [4] is T2, Polyunsaturated fatty acid lipoxygenase ALOX15 (Oryctolagus cuniculus, UniProt P12530).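 Further: inhibition of 15-lipoxygenase enzyme activity measured with linoleic acid as the substrate; in other assays of this panel Not Active means under 50% inhibition at 10 µM.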
T2 sequence (P12530 whole entry): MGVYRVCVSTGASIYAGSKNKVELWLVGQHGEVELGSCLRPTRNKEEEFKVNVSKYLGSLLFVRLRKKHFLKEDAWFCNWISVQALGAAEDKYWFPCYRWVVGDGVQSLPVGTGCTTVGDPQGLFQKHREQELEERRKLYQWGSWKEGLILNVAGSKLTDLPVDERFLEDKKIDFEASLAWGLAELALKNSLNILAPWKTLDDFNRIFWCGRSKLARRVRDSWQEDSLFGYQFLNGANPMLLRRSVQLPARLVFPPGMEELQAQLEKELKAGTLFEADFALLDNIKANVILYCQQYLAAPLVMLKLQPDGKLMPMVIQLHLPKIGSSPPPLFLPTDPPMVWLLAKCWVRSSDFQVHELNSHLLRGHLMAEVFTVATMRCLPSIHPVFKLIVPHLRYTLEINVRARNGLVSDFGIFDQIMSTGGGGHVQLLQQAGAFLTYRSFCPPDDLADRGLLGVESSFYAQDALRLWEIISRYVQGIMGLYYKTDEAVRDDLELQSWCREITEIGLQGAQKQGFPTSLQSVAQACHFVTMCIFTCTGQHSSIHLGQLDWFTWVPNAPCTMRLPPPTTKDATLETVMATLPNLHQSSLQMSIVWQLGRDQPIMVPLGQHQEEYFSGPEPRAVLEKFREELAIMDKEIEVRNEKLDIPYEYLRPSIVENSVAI
The data set can be described thus: biochemical. The class given is tissue-based, Reticulocytes.

Another data set deals with T3, Cathepsin G (Homo sapiens, UniProt P08311).
T3 sequence (P08311 whole entry): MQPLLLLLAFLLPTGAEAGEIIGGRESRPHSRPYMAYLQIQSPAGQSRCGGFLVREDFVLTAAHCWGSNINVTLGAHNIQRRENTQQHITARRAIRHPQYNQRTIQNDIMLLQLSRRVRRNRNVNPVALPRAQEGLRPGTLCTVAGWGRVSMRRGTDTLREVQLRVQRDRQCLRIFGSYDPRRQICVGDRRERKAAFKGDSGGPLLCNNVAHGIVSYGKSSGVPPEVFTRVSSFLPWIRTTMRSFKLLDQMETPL
The data set is classed as tissue-based. To be noted: neutrophil.

Data set [5] addresses Protein phosphatase 3 catalytic subunit alpha (Homo sapiens, UniProt Q08209). Further details: species or system Escherichia coli.
Data set [6] concerns the target Voltage-gated inwardly rectifying potassium channel KCNH2 (Homo sapiens, UniProt Q12809). To be noted: hek293. Further: in other assays of this panel Not Active means under 50% inhibition at 10 µM.

Sequence of Voltage-gated inwardly rectifying potassium channel KCNH2 (Q12809 whole entry): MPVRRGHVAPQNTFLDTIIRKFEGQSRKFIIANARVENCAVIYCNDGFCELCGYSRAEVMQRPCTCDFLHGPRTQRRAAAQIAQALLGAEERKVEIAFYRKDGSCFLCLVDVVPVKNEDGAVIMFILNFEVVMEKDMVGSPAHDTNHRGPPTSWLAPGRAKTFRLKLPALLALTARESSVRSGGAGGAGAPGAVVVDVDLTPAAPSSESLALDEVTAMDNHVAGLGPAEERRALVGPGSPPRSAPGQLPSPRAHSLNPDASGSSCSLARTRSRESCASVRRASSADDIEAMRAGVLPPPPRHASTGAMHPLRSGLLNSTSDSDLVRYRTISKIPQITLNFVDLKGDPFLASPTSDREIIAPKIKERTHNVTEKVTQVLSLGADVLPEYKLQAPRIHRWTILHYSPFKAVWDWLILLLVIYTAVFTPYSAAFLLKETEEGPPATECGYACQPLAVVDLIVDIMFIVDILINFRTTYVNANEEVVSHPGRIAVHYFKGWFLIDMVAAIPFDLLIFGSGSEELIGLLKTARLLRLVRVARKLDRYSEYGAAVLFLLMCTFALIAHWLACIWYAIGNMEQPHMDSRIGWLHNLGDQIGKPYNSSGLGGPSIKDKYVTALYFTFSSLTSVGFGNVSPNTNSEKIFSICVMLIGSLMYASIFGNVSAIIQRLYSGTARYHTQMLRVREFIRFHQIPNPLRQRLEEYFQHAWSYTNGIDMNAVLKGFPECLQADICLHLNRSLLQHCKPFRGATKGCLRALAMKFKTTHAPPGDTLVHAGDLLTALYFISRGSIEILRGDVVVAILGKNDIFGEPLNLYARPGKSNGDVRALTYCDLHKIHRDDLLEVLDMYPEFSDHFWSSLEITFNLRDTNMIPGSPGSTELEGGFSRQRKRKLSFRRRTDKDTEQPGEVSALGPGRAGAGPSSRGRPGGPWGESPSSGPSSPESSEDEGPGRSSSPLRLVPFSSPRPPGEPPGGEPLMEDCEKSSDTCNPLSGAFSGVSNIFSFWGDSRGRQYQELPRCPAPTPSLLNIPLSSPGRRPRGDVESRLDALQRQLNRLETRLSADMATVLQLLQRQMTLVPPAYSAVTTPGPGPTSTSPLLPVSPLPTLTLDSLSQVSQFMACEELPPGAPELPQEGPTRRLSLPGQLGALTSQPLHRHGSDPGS

Take `CCc1c2c(nc3ccc(OC(=O)N4CCC(N5CCCCC5)CC4)cc13)-c1cc3c(c(=O)n1C2)COC(=O)[C@]3(O)CC` [IRINOTECAN]: the IC50 result (in data set [1]; in data set [2]; in data set [3] (platelet); in data set [4] (reticulocytes); on Cathepsin G; in data set [5]) was “Not Active” in each case. Besides, the IC50 entry in data set [6] was “Not Active”. Besides, in data set [6], the Ki result was “Not Active”.
As to `Nc1ccn([C@@H]2CS[C@H](CO)O2)c(=O)n1` [LAMIVUDINE], the half-maximal inhibitory concentration (IC50) entry (in data set [1]; in data set [2]; in data set [3] (platelet); in data set [4] (reticulocytes); at Cathepsin G; in data set [5]) was “Not Active” in each case. In data set [6], the 50% inhibitory concentration (IC50) result is on record as “Not Active”. Besides, the Ki entry in data set [6] is “Not Active”.
Consider `O=S(=O)([O-])CCS.[Na+]` [MESNA], for which the half-inhibitory concentration (IC50) entry (in data set [1]; in data set [2]; in data set [3] (platelet); in data set [4] (reticulocytes); on Cathepsin G; in data set [5]) was “Not Active” each time. The IC50 result in data set [6] is listed as “Not Active”. In addition, the Ki result in data set [6] was “Not Active”.
In the case of `C#C[C@]1(O)CC[C@H]2[C@@H]3CCc4cc(OC)ccc4[C@H]3CC[C@@]21C` [MESTRANOL], the IC50 entry (in data set [1]; in data set [2]; in data set [3] (platelet); in data set [4] (reticulocytes); against Cathepsin G; in data set [5]) was “Not Active” throughout. Besides, in data set [6], the IC50 result is given as “Not Active”. Also, the Ki result in data set [6] was “Not Active”.
Turning to `CC(=O)Nc1cccc(O)c1` [METACETAMOL], the IC50 entry (in data set [1]; in data set [2]; in data set [3] (platelet); in data set [4] (reticulocytes); at Cathepsin G; in data set [5]) was “Not Active” each time. In data set [6], the IC50 result is reported as “Not Active”. Further, the Ki entry in data set [6] is listed as “Not Active”.
`Cc1ncc([N+](=O)[O-])n1CCO` [METRONIDAZOLE]: the IC50 entry (in data set [1]; in data set [2]; in data set [3] (platelet); in data set [4] (reticulocytes); on Cathepsin G; in data set [5]) was “Not Active” throughout. In data set [6], the IC50 entry is recorded as “Not Active”. In addition, in data set [6], the Ki entry is “Not Active”.
On to `CC(C)(C(=O)c1cccnc1)c1cccnc1` [METYRAPONE], for which the IC50 entry (in data set [1]; in data set [2]; in data set [3] (platelet); in data set [4] (reticulocytes); against Cathepsin G; in data set [5]) was “Not Active” in each case. Moreover, the 50% inhibitory concentration (IC50) result in data set [6] is on record as “Not Active”. Further, the Ki result in data set [6] is reported as “Not Active”.
With `Oc1ccc(OCc2ccccc2)cc1` [MONOBENZONE], the IC50 entry in data set [1] is “Not Active”; in data set [2], “Not Active”; in data set [3] (read-out: IC50) it was 1020 nM; in data set [4] (read-out: IC50), 4.89 µM; at Cathepsin G, “Not Active”; in data set [5] it was “Not Active”. Further, the IC50 result in data set [6] is given as “Not Active”. In addition, in data set [6], the Ki result is “Not Active”.
Turning to `CC(C)(Oc1ccc(C2CCCc3ccccc32)cc1)C(=O)O` (configuration not stated) [NAFENOPIN], the IC50 result (in data set [1]; in data set [2]; in data set [3] (platelet); in data set [4] (reticulocytes); against Cathepsin G; in data set [5]) was “Not Active” throughout. Besides, the 50% inhibitory concentration (IC50) entry in data set [6] is on record as “Not Active”. Also, the Ki entry in data set [6] is listed as “Not Active”.
With `CC(C)[C@H]1CC[C@H](C(=O)N[C@H](Cc2ccccc2)C(=O)O)CC1` [NATEGLINIDE], the IC50 entry (in data set [1]; in data set [2]; in data set [3] (platelet); in data set [4] (reticulocytes); against Cathepsin G; in data set [5]) was “Not Active” each time. In addition, in data set [6], the IC50 entry was “Not Active”. Also, the Ki result in data set [6] was “Not Active”.
For `CCN[C@@H]1C[C@H](N)[C@@H](O[C@H]2OC(CN)=CC[C@H]2N)[C@H](O)[C@H]1O[C@H]1OC[C@](C)(O)[C@H](NC)[C@H]1O` [NETILMICIN], the IC50 result (in data set [1]; in data set [2]; in data set [3] (platelet); in data set [4] (reticulocytes); at Cathepsin G; in data set [5]) was “Not Active” in each case. In addition, the IC50 result in data set [6] is reported as “Not Active”. For the same compound, the Ki entry in data set [6] is on record as “Not Active”.
With `CCOC(=O)C1=C(C)NC(C)=C(C(=O)OC)C1c1cccc([N+](=O)[O-])c1` (configuration not stated) [NITRENDIPINE], the IC50 result (in data set [1]; in data set [2]; in data set [3] (platelet); in data set [4] (reticulocytes); against Cathepsin G; in data set [5]) was “Not Active” in each case. For the same compound, the IC50 result in data set [6] is “Not Active”. The Ki result in data set [6] is “Not Active”.
`C#C[C@]1(OC(C)=O)CC[C@H]2[C@@H]3CCC4=CC(=O)CC[C@@H]4[C@H]3CC[C@@]21C` [NORETHINDRONE ACETATE]: the IC50 entry (in data set [1]; in data set [2]; in data set [3] (platelet); in data set [4] (reticulocytes); on Cathepsin G; in data set [5]) was “Not Active” each time. Besides, in data set [6], the concentration for half-maximal inhibition (IC50) result is “Not Active”. Besides, the Ki entry in data set [6] is on record as “Not Active”.
`COc1ccc2[nH]c([S+]([O-])Cc3ncc(C)c(OC)c3C)nc2c1` (configuration not stated) [OMEPRAZOLE]: the IC50 entry (in data set [1]; in data set [2]; in data set [3] (platelet); in data set [4] (reticulocytes); at Cathepsin G; in data set [5]) was “Not Active” throughout. In addition, the IC50 entry in data set [6] is given as “Not Active”. For the same compound, the Ki result in data set [6] is reported as “Not Active”.
On to `Cc1nccn1CC1CCc2c(c3ccccc3n2C)C1=O` (configuration not stated) [ONDANSETRON], for which the IC50 result (in data set [1]; in data set [2]; in data set [3] (platelet); in data set [4] (reticulocytes); against Cathepsin G; in data set [5]) was “Not Active” each time. Moreover, the half-maximal inhibitory concentration (IC50) entry in data set [6] is given as “Not Active”. The Ki result in data set [6] is listed as “Not Active”.
Consider `CCCCOc1ccc(OCCCN2CCOCC2)cc1` [PRAMOXINE], for which the IC50 result (in data set [1]; in data set [2]; in data set [3] (platelet); in data set [4] (reticulocytes); against Cathepsin G; in data set [5]) was “Not Active” in each case. Besides, the IC50 entry in data set [6] is listed as “Not Active”. For the same compound, the Ki entry in data set [6] was “Not Active”.
As to `O=C(C1CCCCC1)N1CC(=O)N2CCc3ccccc3C2C1` (configuration not stated) [PRAZIQUANTEL], the IC50 result (in data set [1]; in data set [2]; in data set [3] (platelet); in data set [4] (reticulocytes); at Cathepsin G; in data set [5]) was “Not Active” in each case. The IC50 result in data set [6] is “Not Active”. Also, in data set [6], the Ki entry is on record as “Not Active”.
As for `CCN(CC)CCOC(=O)c1ccc(N)cc1` [PROCAINE], the IC50 entry (in data set [1]; in data set [2]; in data set [3] (platelet); in data set [4] (reticulocytes); against Cathepsin G; in data set [5]) was “Not Active” throughout. In addition, the IC50 entry in data set [6] is listed as “Not Active”. Also, the Ki result in data set [6] is listed as “Not Active”.
In the case of `CCCN(CCC)C(=O)C(CCC(=O)O)NC(=O)c1ccccc1` (configuration not stated) [PROGLUMIDE], the IC50 result (in data set [1]; in data set [2]; in data set [3] (platelet); in data set [4] (reticulocytes); on Cathepsin G; in data set [5]) was “Not Active” in each case. The IC50 result in data set [6] is listed as “Not Active”. In addition, the Ki result in data set [6] is reported as “Not Active”.
